Test results reported in patent publication US10364238B2, “N-((het) arylmethyl)-heteroaryl-carboxamides compounds as plasma kallikrein inhibitors” (KALVISTA PHARMACEUTICALS LIMITED, priority 2014, dated 2019).

Experiments:
Human plasma kallikrein = Human plasma kallikrein (Homo sapiens (Human), UniProt P03952); assay: Determination of the IC50 for plasma kallikrein; type: biochemical; settings: 25° C., fluorogenic substrate H-DPro-Phe-Arg-AFC; read-out: IC50 (human PKaI)
Procedure: Determination of the IC50 for Plasma Kallikrein
(§1) Human plasma kallikrein (Protogen) was incubated at 25° C. with the fluorogenic substrate H-DPro-Phe-Arg-AFC and various concentrations of the test compound. Residual enzyme activity (initial rate of reaction) was determined by measuring the change in […] at 410 nm and the IC50 value for the test compound was determined.

Human KLK1 = Human KLK1 (Homo sapiens (Human), UniProt P06870); assay: Determination of the IC50 for KLK1; type: biochemical; settings: 25° C., fluorogenic substrate H-DVal-Leu-Arg-AFC
Chain of Human KLK1 (P06870 25-262): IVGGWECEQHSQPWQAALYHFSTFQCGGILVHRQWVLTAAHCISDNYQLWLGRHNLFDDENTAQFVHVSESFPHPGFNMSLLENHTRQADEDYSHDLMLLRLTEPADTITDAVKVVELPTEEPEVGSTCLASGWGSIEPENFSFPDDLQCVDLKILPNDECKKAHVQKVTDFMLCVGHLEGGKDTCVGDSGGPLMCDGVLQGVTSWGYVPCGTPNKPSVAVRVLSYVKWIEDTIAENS
Procedure: Determination of the IC50 for KLK1
as §1, with “KLK1 (Callbiochem)” for “plasma kallikrein (Protogen)”, “H-DVal-Leu-Arg-AFC” for “H-DPro-Phe-Arg-AFC”

Human FXIa = Human FXIa (Homo sapiens (Human), UniProt P03951); assay: Determination of the % inhibition for FXIa; type: biochemical; settings: 40 μM test compound, 25° C., substrate Z-Gly-Pro-Arg-AFC
Chain of Human FXIa (P03951 388-625): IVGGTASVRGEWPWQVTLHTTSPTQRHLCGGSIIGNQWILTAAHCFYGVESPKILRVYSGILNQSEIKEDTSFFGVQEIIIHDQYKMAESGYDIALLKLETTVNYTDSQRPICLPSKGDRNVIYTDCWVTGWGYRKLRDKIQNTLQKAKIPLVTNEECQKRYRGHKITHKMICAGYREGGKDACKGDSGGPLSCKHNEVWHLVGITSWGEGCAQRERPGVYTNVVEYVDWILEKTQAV
Chain of Human FXIa (P03951 19-387 partner): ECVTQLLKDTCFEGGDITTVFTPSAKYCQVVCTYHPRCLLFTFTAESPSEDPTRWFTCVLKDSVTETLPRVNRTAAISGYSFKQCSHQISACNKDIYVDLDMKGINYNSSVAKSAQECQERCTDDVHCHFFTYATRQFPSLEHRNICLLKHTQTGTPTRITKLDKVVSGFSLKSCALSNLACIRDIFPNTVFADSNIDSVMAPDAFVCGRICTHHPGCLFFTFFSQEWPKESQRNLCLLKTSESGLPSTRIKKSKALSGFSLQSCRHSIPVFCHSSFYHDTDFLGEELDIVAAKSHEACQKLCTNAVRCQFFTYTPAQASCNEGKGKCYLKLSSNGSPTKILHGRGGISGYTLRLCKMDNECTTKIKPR
Procedure: Determination of the % Inhibition for FXIa
Human FXIa (Enzyme Research Laboratories) was incubated at 25° C. with the fluorogenic substrate Z-Gly-Pro-Arg-AFC and 40 μM of the test compound. Residual enzyme activity (initial rate of reaction) was determined by measuring the change in […].

[1] = Pharmacokinetics following a single oral dose in rats; type: in vivo; settings: rat, nominal 10 mg/kg, male Sprague-Dawley rats, plasma
Procedure: Pharmacokinetic studies of the compounds in Table 15 were performed to assess the pharmacokinetics following a single oral dose in male Sprague-Dawley rats. Two rats were given a single po dose of 5 mL/kg of a nominal 2 mg/mL (10 mg/kg) composition of test compound in vehicle. Following dosing, blood samples were collected over a period of 24 hours. Sample times were 5, 15 and 30 minutes then 1, 2, 4, 6, 8 and 12 hours. Following collection, blood samples were centrifuged and the plasma fraction analysed for concentration of test compound by LCMS.

Chain of Human plasma kallikrein (P03952 391-638): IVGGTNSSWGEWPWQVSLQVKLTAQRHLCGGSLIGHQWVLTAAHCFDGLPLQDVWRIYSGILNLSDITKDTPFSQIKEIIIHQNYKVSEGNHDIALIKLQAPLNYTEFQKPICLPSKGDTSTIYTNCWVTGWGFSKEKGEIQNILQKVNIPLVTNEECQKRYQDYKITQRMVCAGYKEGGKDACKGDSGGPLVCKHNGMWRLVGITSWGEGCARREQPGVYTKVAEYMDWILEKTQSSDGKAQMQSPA
Chain of Human plasma kallikrein (P03952 20-390 partner): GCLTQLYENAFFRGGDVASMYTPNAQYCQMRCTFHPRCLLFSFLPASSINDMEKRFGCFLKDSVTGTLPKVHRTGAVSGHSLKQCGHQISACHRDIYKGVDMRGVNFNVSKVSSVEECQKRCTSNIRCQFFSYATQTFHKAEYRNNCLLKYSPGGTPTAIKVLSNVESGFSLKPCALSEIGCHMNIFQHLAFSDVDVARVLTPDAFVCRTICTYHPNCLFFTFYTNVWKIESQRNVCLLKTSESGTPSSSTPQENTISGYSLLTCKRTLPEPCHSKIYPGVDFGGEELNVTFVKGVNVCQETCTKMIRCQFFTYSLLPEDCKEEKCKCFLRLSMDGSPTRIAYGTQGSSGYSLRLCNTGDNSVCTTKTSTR

Row | Compound | IC50 (Human plasma kallikrein) | IC50 (Human KLK1) | inhibition at 40 µM (Human FXIa) | Cmax [1] | Tmax [1]
1 | COCc1nn(Cc2ccc(Cn3ccccc3=O)cc2)cc1C(=O)NCc1cccc(OC)c1F [Example 53, N-[(2-fluoro-3-methoxyphenyl)methyl]-3-(methoxymethyl)-1-({4-[(2-oxopyridin-1-yl)methyl]phenyl}methyl)pyrazole-4-carboxamide] | 20.2 nM | > 10000 nM |  | 1030 ng/mL | 15 min
2 | COCc1nn(Cc2ccc(Cn3ccccc3=O)cc2)cc1C(=O)NCc1c(C#N)ccc(OC)c1F [Example 77, N-[(6-cyano-2-fluoro-3-methoxyphenyl)methyl]-3-(methoxymethyl)-1-({4-[(2-oxopyridin-1-yl)methyl]phenyl}methyl)pyrazole-4-carboxamide] | 0.6 nM |  | 28% | 397 ng/mL | 30 min
3 | COCc1nn(Cc2ccc(Cn3ccccc3=O)cc2)cc1C(=O)NCc1cc(F)cc(OC)c1F [Example 96, N-[(2,5-difluoro-3-methoxyphenyl)methyl]-3-(methoxymethyl)-1-({4-[(2-oxopyridin-1-yl)methyl]phenyl}methyl)pyrazole-4-carboxamide] | 75 nM | > 40000 nM | 0% |  | 
4 | COc1cccc(CNC(=O)c2cn(Cc3ccc(Cn4ccccc4=O)cc3)c(C)n2)c1F [Example 121, N-[(2-fluoro-3-methoxyphenyl)methyl]-2-methyl-1-({4-[(2-oxopyridin-1-yl)methyl]phenyl}methyl)imidazole-4-carboxamide] | 43.9 nM | > 10000 nM | 0% |  | 
5 | COc1cccc(CNC(=O)c2cn(Cc3ccc(Cn4ccccc4=O)cc3)c(C(F)(F)F)n2)c1F [Example 124, N-[(2-fluoro-3-methoxyphenyl)methyl]-1-({4-[(2-oxopyrldin-1-yl)methyl]phenyl}methyl)-2-(trifluoromethyl)imidazole-4-carboxamide] | 191 nM | > 10000 nM | 0% |  | 
6 | Nc1nn(Cc2ccc(Cn3ccccc3=O)cc2)cc1C(=O)NCc1cccc(O)c1F [Example 130, 3-amino-N-[(2-fluoro-3-hydroxyphenyl)methyl]-1-({4-[(2-oxopyridin-1-yl)methyl]phenyl}methyl)pyrazole-4-carboxamide] | 174 nM | > 40000 nM | 0% |  | 
7 | CCc1cccc(CNC(=O)c2cn(Cc3ccc(Cn4ccccc4=O)cc3)nc2COC)c1F [Example 132, N-[(3-ethyl-2-fluorophenyl)methyl]-3-(methoxymethyl)-1-({4-[(2-oxopyridin-1-yl)methyl]phenyl}methyl)pyrazole-4-carboxamide] | 135 nM | > 40000 nM | 0% |  | 
8 | COCc1nn(Cc2ccc(Cn3ccccc3=O)cc2)cc1C(=O)NCc1cccc(OC)c1 [Example 133, 3-(methoxymethyl)-N-[(3-methoxyphenyl)methyl]-1-({4-[(2-oxopyridin-1-yl)methyl]phenyl}methyl)pyrazole-4-carboxamide] | 90.2 nM | > 10000 nM | 1% |  | 
9 | CN1CC(CNC(=O)c2cn(Cc3ccc(Cn4ccccc4=O)cc3)nc2N)Oc2cc(Cl)ccc21 (stereo not drawn) [Example 139, 3-amino-N-[(7-chloro-4-methyl-2,3-dihydro-1,4-benzoxazin-2-yl)methyl]-1-({4-[(2-oxopyridin-1-yl)methyl]phenyl}methyl)pyrazole-4-carboxamide] | 64.7 nM | > 40000 nM | 33% |  | 

Results, then the compound that gave them:

Row | IC50 (Human plasma kallikrein) | IC50 (Human KLK1) | inhibition at 40 µM (Human FXIa) | Cmax [1] | Tmax [1] | Compound
10 | 8.7 nM | > 10000 nM | 8% | 351 ng/mL | 60 min | COc1cccc(CNC(=O)c2cn(Cc3ccc(Cn4ccccc4=O)cc3)nc2N)c1F [Example 2, 3-Amino-1-[4-(2-oxo-2H-pyridin-1-ylmethyl)-benzyl]-1H-pyrazole-4-carboxylic acid 2-fluoro-3-methoxy-benzylamide]
11 |  | > 40000 nM | 0% | 1530 ng/mL | 180 min | COCc1nn(Cc2ccc(Cn3ccccc3=O)cc2)cc1C(=O)NCc1nccc(OC)c1F [Example 41, N-[(3-fluoro-4-methoxypyridin-2-yl)methyl]-3-(methoxymethyl)-1-({4-[(2-oxopyridin-1-yl)methyl]phenyl}methyl)pyrazole-4-carboxamide]
12 | 48.9 nM | > 40000 nM |  | 101 ng/mL | 15 min | O=C(NCc1c(F)cccc1C(F)(F)F)c1cn(Cc2ccc(Cn3ccccc3=O)cc2)nc1C(F)(F)F [Example 51, N-{[2-fluoro-6-(trifluoromethyl)phenyl]methyl}-1-({4-[(2-oxopyridin-1-yl)methyl]phenyl}methyl)-3-(trifluoromethyl)pyrazole-4-carboxamide]
13 | 16 nM | > 10000 nM | 4% |  |  | COCc1nn(Cc2ccc(Cn3ccccc3=O)cc2)cc1C(=O)NCc1c(F)cccc1OC(F)F [Example 92, N-{[2-(difluoromethoxy)-6-fluorophenyl]methyl}-3-(methoxymethyl)-1-({4-[(2-oxopyridin-1-yl)methyl]phenyl}methyl)pyrazole-4-carboxamide]
14 | 780 nM | > 10000 nM | 0% |  |  | COCc1nn(Cc2ccc(Cn3ccccc3=O)cc2)cc1C(=O)NCc1cc(F)ccc1F [Example 94, N-[(2,5-difluorophenyl)methyl]-3-(methoxymethyl)-1-({4-[(2-oxopyridin-1-yl)methyl]phenyl}methyl)pyrazole-4-carboxamide]
15 | 308 nM | > 40000 nM | 1% |  |  | COCc1nn(Cc2ccc(Cn3ccccc3=O)cc2)cc1C(=O)NCc1cc(F)cc(OC)c1 [Example 95, N-[(3-fluoro-5-methoxyphenyl)methyl]-3-(methoxymethyl)-1-({4-[(2-oxopyridin-1-yl)methyl]phenyl}methyl)pyrazole-4-carboxamide]
16 | 153 nM | > 10000 nM | 0% |  |  | COCc1nn(Cc2ccc(Cn3ccccc3=O)cc2)cc1C(=O)NCc1c(C)cccc1F [Example 97, N-[(2-fluoro-6-methylphenyl)methyl]-3-(methoxymethyl)-1-({4-[(2-oxopyridin-1-yl)methyl]phenyl}methyl)pyrazole-4-carboxamide]
17 | 691 nM | > 10000 nM | 0% |  |  | COCc1nn(Cc2ccc(Cn3ccncc3=O)cc2)cc1C(=O)NCc1cccc(OC)c1F [Example 104, N-[(2-fluoro-3-methoxyphenyl)methyl]-3-(methoxymethyl)-1-({4-[(2-oxopyrazin-1-yl)methyl]phenyl}methyl)pyrazole-4-carboxamide]
18 | 140 nM | > 10000 nM | 2% |  |  | COCc1nn(Cc2ccc(Cn3ccc(C)cc3=O)cc2)cc1C(=O)NCc1c(F)ccc(OC)c1F [Example 106, N-[(2,6-difluoro-3-methoxyphenyl)methyl]-3-(methoxymethyl)-1-({4-[(4-methyl-2-oxopyridin-1-yl)methyl]phenyl}methyl)pyrazole-4-carboxamide]
19 | 2980 nM | > 10000 nM | 2% |  |  | CCOc1ccn(Cc2ccc(Cn3cc(C(=O)NCc4c(F)ccc(OC)c4F)c(COC)n3)cc2)c(=O)c1 [Example 109, N-[(2,6-difluoro-3-methoxyphenyl)methyl]-1-({4-[(4-ethoxy-2-oxopyridin-1-yl)methyl]phenyl}methyl)-3-(methoxymethyl)pyrazole-4-carboxamide]
20 | 742 nM | > 10000 nM | 10% |  |  | COc1cccc(CNC(=O)c2cn(Cc3ccc(N4CCCC4)nc3)nc2C(F)(F)F)c1F [Example 126, N-[(2-fluoro-3-methoxyphenyl)methyl]-1-{[6-(pyrrolidin-1-yl)pyridin-3-yl]methyl}-3-(trifluoromethyl)pyrazole-4-carboxamide]
21 | 1510 nM | > 10000 nM | 0% |  |  | COCc1nn(Cc2ccc(Cn3ccccc3=O)cc2)cc1C(=O)NCc1ccccc1C(=O)OC [Example 131, methyl 2-({[3-(methoxymethyl)-1-({4-[(2-oxopyridin-1-yl)methyl]phenyl}methyl)pyrazol-4-yl]formamido}methyl)benzoate]
22 | 10.6 nM | > 40000 nM | 9% |  |  | Nc1nn(Cc2ccc(Cn3ccccc3=O)cc2)cc1C(=O)NCC1CNc2ccc(Cl)cc2O1 (stereo not drawn) [Example 140, 3-amino-N-[(7-chloro-3,4-dihydro-2H-1,4-benzoxazin-2-yl)methyl]-1-({4-[(2-oxopyridin-1-yl)methyl]phenyl}methyl)pyrazole-4-carboxamide]
